# From US20240024317A1, “CANCER TREATMENT USING BOSENTAN IN COMBINATION WITH A CHECKPOINT INHIBITOR” (Materia Therapeutics Inc., priority 2020, published 2024)
# Legend:
# Type in all cases: in vivo, mice
# E0771 tumors = test: Primary tumor growth, bosentan plus ICB cocktail, neo-adjuvant setting; conditions: 1 mg/kg bosentan combined with ICB cocktail (10 mg/kg anti-PD-1, 5 mg/kg anti-CTLA-4); n=10
# Description: (§1) To determine if a stiffness-reducing and hypoxia-reducing (blood flow-increasing) regimen of bosentan could enhance the efficacy of an ICB cocktail of anti-PD-1 (mouse monoclonal anti-PD-1 CD279, clone RMP1-14, BioXCell) and anti-CTLA-4 (mouse monoclonal anti-CTLA-4 CD152, clone 9D9, BioXCell) antibodies, mice bearing primary tumors in a neo-adjuvant setting were administered various treatments. Therapy was administered before removing the primary tumors surgically to assess mice survival against spontaneous metastases that arose on treatment. For the combinatorial treatment with bosentan and Immunotherapy studies, bosentan 1 mg/kg or equal volume of diluent (control group) was administered by intraperitoneal injection (i.p.) once a day for 14 days, starting from once the tumor volumes reached an average size of 5 mm diameter. Immunotherapy was administrated as a cocktail of 10 mg/kg anti-PD-1 (CD279, clone RMP1-14, BioXCell) and 5 mg/kg anti-CTLA-4 (CD152, clone 9D9) following dilution in the recommended InVivoPure pH 7.0 Dilution Buffer (BioXCell). […] Planar dimensions (x, y) of tumor were monitored every 2-3 days using a digital caliper and tumor volume was estimated from the volume of an ellipsoid and assuming that the third dimension, z, is equal to x y. […]
# 4T1 tumors [1] = test: as above; conditions: 1 mg/kg bosentan combined with ICB cocktail (10 mg/kg anti-PD-1, 5 mg/kg anti-CTLA-4); n=8-10
# Description: as §1
# 4T1 tumors [2] = test: Tumor volume over time, bosentan pre-treatment plus anti-PD-1/anti-CTLA-4 (Example 5); conditions: pre-treated with bosentan 1 mg/kg, then immunotherapy cocktail
# Description: Syngeneic tumor models and treatment protocols. Orthotopic models for murine mammary tumors were generated by implantation of 5×10^4 4T1 cancer cells in 40 μL of serum-free medium into the third mammary fat pad of 6-8 weeks-old BALB/c mice. Mice were purchased from the Cyprus Institute of Neurology and Genetics and all in vivo experiments were conducted in accordance with the animal welfare regulations and guidelines of the Republic of Cyprus and the European Union (European Directive 2010/63/EE and Cyprus Legislation for the protection and welfare of animals, Laws 1994-2013) under a license acquired and approved (No CY/EXP/PR.L2/2018, CY/EXP/PR.L14/2019, CY/EXP/PR.L15/2019, CY/EXP/PR.L03/2020) by the Cyprus Veterinary Services committee, the Cyprus national authority for monitoring animal research for all academic institutions.
# Tranilast at 200 mg/kg, bosentan at 1 mg/kg, or equal volume of diluent (control group) was administered by intraperitoneal injection (i.p.) once a day for 14 days, starting from once the tumor volumes reached an average size of 5 mm diameter. […]
# Planar dimensions (x, y) of tumor were monitored every 2-3 days using a digital caliper and tumor volume was estimated from the volume of an ellipsoid and assuming that the third dimension, z, is equal to the sqrt(x y). […]
# 4T1 tumors [3] = test: Shear wave elastography of tumor stiffness (Example 5); conditions: bosentan 1 mg/kg
# Text: Ultrasound elastography. Shear wave elestography was employed on a premier Philips EPIQ Elite Ultrasound system using a handheld linear array (eL 18-4) transducer. The method generates shear wave velocity via an acoustic push pulse, creating a color mapped elastogram where red indicates hard tissue and blue indicates soft tissue. A confidence display was also used as a reference of the highest shear wave quality of the user-defined region of interest (ROI). The average value of the tumor region was automatically generated by the system under default scanner settings and expressed in kPa. The settings that were used were: frequency, 10 MHz; power, 52%; B-mode gain, 22 dB; dynamic range, 62 dB. Shear wave imaging was performed prior to immunotherapy cocktail treatment on day 19 and as well on days 23 and 26.
smiles,measurement,setting,value
"COc1ccccc1Oc1c(NS(=O)(=O)c2ccc(C(C)(C)C)cc2)nc(-c2ncccn2)nc1OCCO [bosentan, 4-tert-butyl-N-[6-(2-hydroxy-ethoxy)-5-(2-methoxy-phenoxy)-2-(pyrimidin-2-yl)pyrimidin-4-yl] benzenesulfonamide]",tumor growth,E0771 tumors,potentiated tumor growth inhibition
same,tumor growth,4T1 tumors [1],potentiated tumor growth inhibition
same,tumor volume as a function of time,4T1 tumors [2],effectively stop further tumor growth
same,reduction of tumor stiffness,4T1 tumors [3],more than half
same,tumor stiffness (elastic modulus) after bosentan treatment,4T1 tumors [3],~20 kPa
